Earlier results, collected in US10071072B2, “Method for treating neurotrauma” (N.V. Nutricia, priority 2011, dated 2018).

System: neurotrauma
Conditions: in vivo supply; King et al. J. Neurosci.

Question: Which neuroprotection in neurotrauma does the source give for `CC/C=C\C/C=C\C/C=C\CCCCCCCC(=O)O` [α-linolenic acid] here?
Answer: neuroprotective
